This note sets out measurements from ChEMBL document CHEMBL5136993, “Identification of potent α-amylase inhibitors via dynamic combinatorial chemistry” (Bioorg Med Chem, 2022).

In data set [1] the target is T1, Alpha amylase (Homo sapiens, UniProt P0DUB6).
T1 sequence (P0DUB6 whole entry): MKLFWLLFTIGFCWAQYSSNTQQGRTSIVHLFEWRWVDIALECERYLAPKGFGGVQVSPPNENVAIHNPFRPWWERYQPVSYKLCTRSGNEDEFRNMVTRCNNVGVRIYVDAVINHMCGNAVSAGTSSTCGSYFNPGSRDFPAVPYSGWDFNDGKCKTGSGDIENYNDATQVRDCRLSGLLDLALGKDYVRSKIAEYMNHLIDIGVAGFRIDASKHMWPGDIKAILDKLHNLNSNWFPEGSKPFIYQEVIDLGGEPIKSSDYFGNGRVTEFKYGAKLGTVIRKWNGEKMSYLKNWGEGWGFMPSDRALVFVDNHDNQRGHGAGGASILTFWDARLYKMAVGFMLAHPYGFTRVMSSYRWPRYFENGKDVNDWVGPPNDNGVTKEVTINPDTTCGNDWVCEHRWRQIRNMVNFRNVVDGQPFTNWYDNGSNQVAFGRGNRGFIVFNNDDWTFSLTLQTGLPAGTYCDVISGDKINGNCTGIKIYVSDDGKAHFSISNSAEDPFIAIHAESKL
As to the kind of experiment: Inhibition of human saliva alpha-amylase using starch as substrate preincubated for 15 mins followed by substrate addition and measured after 15 mins.

Data set [2] is described as follows: Cytotoxicity against HEK293 cells assessed as reduction in cell growth incubated for 12 hrs by CCK-8 assay. The format is toxicity, cell-based. Particulars: human. (Formazan colour is commonly taken as a measure of viable cells.)
The target of data set [3] is T1, Alpha amylase. As to the kind of experiment: Competitive inhibition of human saliva alpha-amylase assessed as inhibition constant using starch as substrate preincubated for 15 mins followed by substrate addition and measured after 15 mins by dixon plot analysis. It is filed as tissue-based.
The test system of data set [4] is O=C(N/N=C/c1coc2cc(Br)ccc2c1=O)c1nc(-c2cccc(Br)c2)cs1. Put plainly: Competitive inhibition of human saliva alpha-amylase assessed as Km using starch as substrate preincubated for 15 mins followed by substrate addition and measured after 15 mins by Lineweaver-Burk plot analysis. To be noted: time 30.0 min.

Where only a bound is given, the exact number is not on record here.

The molecule `O=C(N/N=C/c1coc2cc(Br)ccc2c1=O)c1nc(-c2ccc(Cl)cc2)cs1` showed an IC50 in data set [1] of 6.1 µM. Moreover, the CC50 at 12 h in data set [2] came out at 68 µM.

The molecule `Cc1ccc2occ(/C=N/NC(=O)c3nc(-c4ccc(F)cc4)cs3)c(=O)c2c1` had an IC50 in data set [1] of 19 µM.

`O=C(N/N=C/c1coc2cc(Br)ccc2c1=O)c1nc(-c2cccc(Br)c2)cs1` gave an IC50 in data set [1] of 4.46 µM. In data set [2], the CC50 at 12 h was more than 100 µM. For the same molecule, in data set [3], the Ki stood at 5.4 µM.

For “Alpha amylase (Homo sapiens) (from UniProt P0DUB6)”, the Km in data set [4] came to 2140 µM.

Broadly, the IC50 is the midpoint of a concentration-inhibition curve. Low values mean higher potency, high ones lower potency. What is called CC50 is the concentration giving 50% cytotoxicity. What is called Ki is the equilibrium dissociation constant of an inhibitor or competing ligand from its target. The term Km denotes the concentration of substrate that gives half-maximal velocity.
